What follows are molecules tested against T1, human PTH1 receptor (Homo sapiens, UniProt Q03431) (assay: In vitro cAMP signal activity in HKRK-B7 cells (LLC-PK1 cells overexpressing the human PTH1 receptor)). Details: HKRK-B7 cells; compound at 1×10^−3 M; […]; 0.1 µM.
T1 sequence (Q03431 27-593): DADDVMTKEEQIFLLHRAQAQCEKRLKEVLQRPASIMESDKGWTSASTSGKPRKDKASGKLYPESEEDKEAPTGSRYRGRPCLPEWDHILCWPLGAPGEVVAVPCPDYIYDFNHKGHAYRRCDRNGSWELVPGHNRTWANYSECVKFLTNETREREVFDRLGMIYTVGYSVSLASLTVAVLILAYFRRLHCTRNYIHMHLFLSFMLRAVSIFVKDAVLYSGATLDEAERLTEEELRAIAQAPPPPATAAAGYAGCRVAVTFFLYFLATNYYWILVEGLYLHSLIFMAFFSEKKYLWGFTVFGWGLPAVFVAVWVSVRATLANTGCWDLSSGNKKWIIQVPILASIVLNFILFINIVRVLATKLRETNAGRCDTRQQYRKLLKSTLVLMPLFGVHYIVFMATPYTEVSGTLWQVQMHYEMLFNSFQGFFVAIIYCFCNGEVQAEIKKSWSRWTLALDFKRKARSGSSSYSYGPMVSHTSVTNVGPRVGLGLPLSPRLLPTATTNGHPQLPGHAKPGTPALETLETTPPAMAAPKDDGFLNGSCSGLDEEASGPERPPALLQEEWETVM
Format: cell-based

With `COC(=O)N(C)c1ccc(CCS(=O)(=O)N2CCC3(CC2)N=C(c2cccc(OC(F)(F)F)c2)NC3=O)c(C)c1` [Compound 468, Methyl-(3-methyl-4-{2-[4-oxo-2-(3-trifluoromethoxy-phenyl)-1,3,8-triaza-spiro[4.5]dec-1-ene-8-sulfonyl]-ethyl}-phenyl)-carbamic acid methyl ester] the “cAMP production activity (%)” value was 90%.

Same assay, conditions: HKRK-B7 cells; compound at 1×10^−3 M; cAMP produced as percentage of that produced by hPTH(1-34) at 100 nM

Point of comparison: `Cc1c(/C=C/S(=O)(=O)N2CCC3(CC2)N=C(c2cccc(OC(F)(F)F)c2)NC3=O)cccc1OCCO` [Compound 256, 8-{(E)-2-[3-(2-Hydroxy-ethoxy)-2-methyl-phenyl]-ethenesulfonyl}-2-(3-trifluoromethoxy-phenyl)-1,3,8-triaza-spiro[4.5]dec-1-en-4-one], “cAMP production activity (%)” value 67%. Against it:
- Cc1cc(C(=O)N2CCC(C)(O)CC2)cc(C)c1CCS(=O)(=O)N1CCC2(CC1)N=C(c1ccc(F)c(OC(F)(F)F)c1)NC2=O [Compound 1335, 2-(4-fluoro-3-trifluoromethoxy-phenyl)-8-{2-[4-(4-hydroxy-4-methyl-piperidine-1-carbonyl)-2,6-dimethyl-phenyl]-ethanesulfonyl}-1,3,8-triaza-spiro[4.5]dec-1-en-4-one] — higher, 97%
- [2H]C([2H])([2H])C1([2H])CCC(C2=NC3(CCN(S(=O)(=O)CCc4c(C)cc(N(C)C(N)=O)cc4C)CC3)C(=O)N2)CC1 (stereo not drawn) [Compound 1364, 1-(3,5-dimethyl-4-{2-[2-(4-[1,1,1-^2H3]-methyl-[4-^2H1]cyclohexyl)-4-oxo-1,3,8-triaza-spiro[4.5]dec-1-ene-8-sulfonyl]-ethyl}-phenyl)-1-methyl-urea] — higher, 84%
- Cc1cc(C(=O)N2CCOC2=O)cc(C)c1CCS(=O)(=O)N1CCC2(CC1)N=C(C1CCCCC1)NC2=O [Compound 1179, 2-Cyclohexyl-8-{2-[2,6-dimethyl-4-(2-oxo-oxazolidine-3-carbonyl)-phenyl]-ethanesulfonyl}-1,3,8-triaza-spiro[4.5]dec-1-en-4-one] — lower, 65%
- NCc1ccc(/C=C/S(=O)(=O)N2CCC3(CC2)N=C(C2CCCCC2)NC3=O)cc1 [Compound 687, 8-[(E)-2-(4-aminomethyl-phenyl)-ethenesulfonyl]-2-cyclohexyl-1,3,8-triaza-spiro[4.5]dec-1-en-4-one] — lower, 25%
- Cc1cc(N2C(=O)OCC2C)ccc1/C=C/S(=O)(=O)N1CCC2(CC1)N=C(C1CCC(C)CC1)NC2=O (stereo not drawn) [Compound 579, 2-(4-methyl-cyclohexyl)-8-{(E)-2-[2-methyl-4-(4-methyl-2-oxo-oxazolidin-3-yl)-phenyl]-ethenesulfonyl}-1,3,8-triaza-spiro[4.5]dec-1-en-4-one] — lower, 55%
- Cc1cc(C(=O)N(C)CCO)ccc1/C=C/S(=O)(=O)N1CCC2(CC1)N=C(c1cccc(C(F)(F)F)c1)NC2=O [Compound 214, N-(2-hydroxy-ethyl)-3,N-dimethyl-4-{(E)-2-[4-oxo-2-(3-trifluoromethyl-phenyl)-1,3,8-triaza-spiro[4.5]dec-1-ene-8-sulfonyl]-vinyl}-benzamide] — higher, 84%
- O=C1NC(C2CCC(CF)CC2)=NC12CCN(S(=O)(=O)c1cccc(Cl)c1)CC2 (stereo not drawn) [Compound 27, 8-(3-chloro-benzenesulfonyl)-2-(4-fluoromethyl-cyclohexyl)-1,3,8-triaza-spiro[4.5]dec-1-en-4-one] — lower, 42%
- Cc1cc(N(C)C(N)=O)cc(C)c1CCS(=O)(=O)N1CCC2(CC1)N=C(C1CCCC(C(F)(F)F)C1)NC2=O (stereo not drawn) [Compound 1050, 1-(3,5-Dimethyl-4-{2-[4-oxo-2-(3-trifluoromethyl-cyclohexyl)-1,3,8-triaza-spiro[4.5]dec-1-ene-8-sulfonyl]-ethyl}-phenyl)-1-methyl-urea] — higher, 92%
- Cc1cc(N2C(=O)CNC2=O)ccc1CCS(=O)(=O)N1CCC2(CC1)N=C(C1CCC(C(C)C)CC1)NC2=O (stereo not drawn) [Compound 882, 3-(4-{2-[2-(4-isopropyl-cyclohexyl)-4-oxo-1,3,8-triaza-spiro[4.5]dec-1-ene-8-sulfonyl]-ethyl}-3-methyl-phenyl)-imidazolidine-2,4-dione] — higher, 70%
- CONC(=O)Cc1ccc(/C=C/S(=O)(=O)N2CCC3(CC2)N=C(C2CCC(C)CC2)NC3=O)c(C)c1 (stereo not drawn) [Compound 988, N-methoxy-2-(3-methyl-4-{(E)-2-[2-(4-methyl-cyclohexyl)-4-oxo-1,3,8-triaza-spiro[4.5]dec-1-ene-8-sulfonyl]-vinyl}-phenyl)-acetamide] — lower, 50%
- Cc1cc(OC[C@H](O)CO)cc(C)c1CCS(=O)(=O)N1CCC2(CC1)N=C(c1ccc(F)c(OC(F)(F)F)c1)NC2=O [Compound 1329, 8-{2-[4-((R)-2,3-dihydroxy-propoxy)-2,6-dimethyl-phenyl]-ethanesulfonyl}-2-(4-fluoro-3-trifluoromethoxy-phenyl)-1,3,8-triaza-spiro[4.5]dec-1-en-4-one] — higher, 85%
- Cc1cc(C(=O)N2CCC(O)(CF)CC2)cc(C)c1/C=C/S(=O)(=O)N1CCC2(CC1)N=C(c1ccc(C(F)(F)F)c(OCC(F)(F)C(F)F)c1)NC2=O [Compound 1274, 8-{(E)-2-[4-(4-fluoromethyl-4-hydroxy-piperidine-1-carbonyl)-2,6-dimethyl-phenyl]-ethenesulfonyl}-2-[3-(2,2,3,3-tetrafluoro-propoxy)-4-trifluoromethyl-phenyl]-1,3,8-triaza-spiro[4.5]dec-1-en-4-one] — higher, 81%
- Cc1cc(OC[C@H](O)CO)cc(C)c1/C=C/S(=O)(=O)N1CCC2(CC1)N=C(c1ccc(F)c(C(F)(F)F)c1)NC2=O [Compound 242, 8-{(E)-2-[4-((R)-2,3-Dihydroxy-propoxy)-2,6-dimethyl-phenyl]-ethenesulfonyl}-2-(4-fluoro-3-trifluoromethyl-phenyl)-1,3,8-triaza-spiro[4.5]dec-1-en-4-one] — higher, 75%
- O=C1NC(c2cccc(OC(F)(F)F)c2)=NC12CCN(S(=O)(=O)c1cccc(Cl)c1)CC2 [Compound 13, 8-(3-chloro-benzenesulfonyl)-2-(3-trifluoromethoxy-phenyl)-1,3,8-triaza-spiro[4.5]dec-1-en-4-one] — lower, 31%
- Cc1nc(CC(=O)N2CCCC(C3=NC4(CCN(S(=O)(=O)CCc5cccc6ccccc56)CC4)C(=O)N3)C2)c(C)s1 (stereo not drawn) [Compound 433, 2-{1-[2-(2,5-dimethyl-thiazol-4-yl)-acetyl]-piperidin-3-yl}-8-(2-naphthalen-1-yl-ethanesulfonyl)-1,3,8-triaza-spiro[4.5]dec-1-en-4-one] — lower, 18%
- CC(=O)N(c1ccc(/C=C/S(=O)(=O)N2CCC3(CC2)N=C(c2cccc(OC(F)(F)F)c2)NC3=O)c(C)c1)C(C)C [Compound 603, N-isopropyl-N-(3-methyl-4-{(E)-2-[4-oxo-2-(3-trifluoromethoxy-phenyl)-1,3,8-triaza-spiro[4.5]dec-1-ene-8-sulfonyl]-vinyl}-phenyl)-acetamide] — higher, 69%
- Cc1cc(S(=O)(=O)NCCN(C)C)ccc1/C=C/S(=O)(=O)N1CCC2(CC1)N=C(C1CCCCC1)NC2=O [Compound 503, 4-[(E)-2-(2-cyclohexyl-4-oxo-1,3,8-triaza-spiro[4.5]dec-1-ene-8-sulfonyl)-vinyl]-N-(2-dimethylamino-ethyl)-3-methyl-benzenesulfonamide] — the same, 67%
- CC[S+]([O-])CCCCCCC1=NC2(CCN(S(=O)(=O)CCc3c(C)cc(N(C)C(N)=O)cc3C)CC2)C(=O)N1 (stereo not drawn) [Compound 1317, 1-(4-{2-[2-(6-ethanesulfinyl-hexyl)-4-oxo-1,3,8-triaza-spiro[4.5]dec-1-ene-8-sulfonyl]-ethyl}-3,5-dimethyl-phenyl)-1-methyl-urea] — lower, 3.4%
- Cl.[2H]C([2H])([2H])Nc1cc(C)c(/C=C/S(=O)(=O)N2CCC3(CC2)N=C(c2ccc(F)c(C(F)(F)F)c2)NC3=O)c(C)c1 [Compound 1288, 8-[(E)-2-(2,6-dimethyl-4-[1,1,1-^2H3]methylamino-phenyl)-ethenesulfonyl]-2-(4-fluoro-3-trifluoromethyl-phenyl)-1,3,8-triaza-spiro[4.5]dec-1-en-4-one hydrochloride] — lower, 54%
- Cc1cc2[nH]ccc2cc1/C=C/S(=O)(=O)N1CCC2(CC1)N=C(C1CCCCC1)NC2=O [Compound 488, 2-cyclohexyl-8-[(E)-2-(6-methyl-1H-indol-5-yl)-ethenesulfonyl]-1,3,8-triaza-spiro[4.5]dec-1-en-4-one] — lower, 48%
- Cc1cc(C(=O)N2CCC(O)CC2)cc(C)c1CCS(=O)(=O)N1CCC2(CC1)N=C(c1ccc3c(c1)OC(F)(F)O3)NC2=O [Compound 1333, 2-(2,2-difluoro-benzo[1,3]dioxol-5-yl)-8-{2-[4-(4-hydroxy-piperidine-1-carbonyl)-2,6-dimethyl-phenyl]-ethanesulfonyl}-1,3,8-triaza-spiro[4.5]dec-1-en-4-one] — higher, 109%
- CCCCCCCCCC1=NC2(CCN(S(=O)(=O)CCc3ccc(N4CCOCC4=O)cc3C)CC2)C(=O)N1 [Compound 657, 8-{2-[2-Methyl-4-(3-oxo-morpholin-4-yl)-phenyl]-ethanesulfonyl}-2-nonyl-1,3,8-triaza-spiro[4.5]dec-1-en-4-one] — higher, 124%

— patent publication US9169254B2, “Spiroimidazolone derivative” (Chugai Seiyaku Kabushiki Kaisha, priority 2009, dated 2015)
